Data taken from paper PMC9005681, “Use of AD Informer Set compounds to explore validity of novel targets in Alzheimer's disease pathology” (Alzheimer's & Dementia : Translational Research & Clinical …, 2022).

What was measured:
[1] = target: T1, cloned human or rodent CNS receptors, channels, and transporters (PDSP panel) (Homo sapiens, UniProt P11229); assay: PDSP GPCR panel primary binding assays at 10 μM; details: primary assay
T1 construct: expressed in transfected cells
T1 sequence (P11229 1-460): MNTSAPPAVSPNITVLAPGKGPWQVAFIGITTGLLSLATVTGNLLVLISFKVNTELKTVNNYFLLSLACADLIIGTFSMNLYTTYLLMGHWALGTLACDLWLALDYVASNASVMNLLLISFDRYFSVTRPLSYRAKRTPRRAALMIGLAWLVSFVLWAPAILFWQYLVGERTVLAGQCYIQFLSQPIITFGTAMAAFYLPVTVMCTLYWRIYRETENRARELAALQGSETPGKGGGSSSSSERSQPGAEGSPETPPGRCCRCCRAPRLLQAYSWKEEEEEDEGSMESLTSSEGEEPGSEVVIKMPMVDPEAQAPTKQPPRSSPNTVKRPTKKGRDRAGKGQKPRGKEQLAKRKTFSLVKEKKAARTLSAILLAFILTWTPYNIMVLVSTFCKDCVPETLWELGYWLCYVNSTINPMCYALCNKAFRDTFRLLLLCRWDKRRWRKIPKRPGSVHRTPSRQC
Description: (§1) GPCR panel: Screening against the receptors within the PDSP panel offers an assessment of off-target pharmacological activity at cloned human or rodent CNS receptors, channels, and transporters that could confound CNS-related phenotypes. A total of 46–47 primary binding assays were run in quadruplicate on these compounds at 10 μM, with follow-up secondary binding assays in 11-point dose-response in triplicate for select compounds versus select receptors. Secondary binding assays were executed for all receptors where test compound displaced an average of >50% of radio-labeled standard ligand. As an exception, no secondary assays were carried out for H3, PBR, or GABAA. […]

[2] = target: T2, cloned human or rodent CNS receptors, channels, and transporters (PDSP panel) (Homo sapiens, UniProt P21917); assay: PDSP GPCR panel primary binding assays at 10 μM; details: primary assay
T2 construct: expressed in transfected cells
T2 sequence (P21917 1-419): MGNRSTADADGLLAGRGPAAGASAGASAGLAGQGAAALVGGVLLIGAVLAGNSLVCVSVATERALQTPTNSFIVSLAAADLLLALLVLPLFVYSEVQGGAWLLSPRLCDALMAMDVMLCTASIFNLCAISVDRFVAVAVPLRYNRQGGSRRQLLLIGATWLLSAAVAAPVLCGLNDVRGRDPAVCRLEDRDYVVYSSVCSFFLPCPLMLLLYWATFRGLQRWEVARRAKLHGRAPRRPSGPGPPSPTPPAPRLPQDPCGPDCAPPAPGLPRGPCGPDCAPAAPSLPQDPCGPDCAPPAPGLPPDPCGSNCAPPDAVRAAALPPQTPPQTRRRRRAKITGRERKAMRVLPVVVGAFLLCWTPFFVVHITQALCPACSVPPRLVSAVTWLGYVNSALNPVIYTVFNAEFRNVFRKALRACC
Description: as §1

[3] = target: T3, cloned human or rodent CNS receptors, channels, and transporters (PDSP panel) (Homo sapiens, UniProt P25021); assay: PDSP GPCR panel primary binding assays at 10 μM; details: primary assay
T3 construct: expressed in transfected cells
Description: as §1

[4] = target: T4, cloned human or rodent CNS receptors, channels, and transporters (PDSP panel) (Homo sapiens, UniProt P28223); assay: PDSP GPCR panel primary binding assays at 10 μM; details: primary assay
T4 construct: expressed in transfected cells
Description: as §1

[5] = target: T5, cloned human or rodent CNS receptors, channels, and transporters (PDSP panel) (Homo sapiens, UniProt P34969); assay: PDSP GPCR panel primary binding assays at 10 μM; details: primary assay
T5 construct: expressed in transfected cells
Description: as §1

[6] = target: T6, cloned human or rodent CNS receptors, channels, and transporters (PDSP panel) (Homo sapiens, UniProt P41145); assay: PDSP GPCR panel primary binding assays at 10 μM; details: primary assay
T6 construct: expressed in transfected cells
Description: as §1

[7] = target: T7, cloned human or rodent CNS receptors, channels, and transporters (PDSP panel) (Homo sapiens, UniProt P46098); assay: PDSP GPCR panel primary binding assays at 10 μM; details: primary assay
T7 construct: expressed in transfected cells
T7 sequence (P46098 24-478): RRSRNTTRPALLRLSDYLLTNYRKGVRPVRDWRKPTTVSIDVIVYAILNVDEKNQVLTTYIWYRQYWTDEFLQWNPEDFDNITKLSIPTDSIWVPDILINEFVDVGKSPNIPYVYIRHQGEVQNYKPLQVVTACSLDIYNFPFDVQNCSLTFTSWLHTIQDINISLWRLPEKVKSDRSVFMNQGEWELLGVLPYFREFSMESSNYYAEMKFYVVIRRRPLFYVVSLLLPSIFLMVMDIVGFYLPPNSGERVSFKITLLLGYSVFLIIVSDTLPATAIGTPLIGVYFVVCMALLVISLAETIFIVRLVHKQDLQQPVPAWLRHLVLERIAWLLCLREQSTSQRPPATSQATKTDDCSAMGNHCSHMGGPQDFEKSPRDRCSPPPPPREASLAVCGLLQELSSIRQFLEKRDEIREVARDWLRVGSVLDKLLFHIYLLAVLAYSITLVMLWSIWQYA
Description: as §1

[8] = test system: cellular system; set-up: method as in column References for potency and dosing (the 5th table c13); details: published data; References for potency and dosing; cited from earlier work

T3 sequence (P25021 whole entry): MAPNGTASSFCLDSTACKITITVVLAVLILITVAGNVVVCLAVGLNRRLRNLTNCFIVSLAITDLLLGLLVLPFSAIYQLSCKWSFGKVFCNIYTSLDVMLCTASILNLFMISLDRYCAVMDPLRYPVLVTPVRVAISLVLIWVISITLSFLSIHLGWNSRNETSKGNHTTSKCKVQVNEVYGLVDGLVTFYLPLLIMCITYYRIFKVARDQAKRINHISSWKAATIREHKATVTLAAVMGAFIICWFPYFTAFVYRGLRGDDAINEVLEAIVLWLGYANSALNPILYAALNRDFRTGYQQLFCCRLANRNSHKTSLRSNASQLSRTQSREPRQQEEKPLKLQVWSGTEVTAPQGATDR
T5 sequence (P34969 whole entry): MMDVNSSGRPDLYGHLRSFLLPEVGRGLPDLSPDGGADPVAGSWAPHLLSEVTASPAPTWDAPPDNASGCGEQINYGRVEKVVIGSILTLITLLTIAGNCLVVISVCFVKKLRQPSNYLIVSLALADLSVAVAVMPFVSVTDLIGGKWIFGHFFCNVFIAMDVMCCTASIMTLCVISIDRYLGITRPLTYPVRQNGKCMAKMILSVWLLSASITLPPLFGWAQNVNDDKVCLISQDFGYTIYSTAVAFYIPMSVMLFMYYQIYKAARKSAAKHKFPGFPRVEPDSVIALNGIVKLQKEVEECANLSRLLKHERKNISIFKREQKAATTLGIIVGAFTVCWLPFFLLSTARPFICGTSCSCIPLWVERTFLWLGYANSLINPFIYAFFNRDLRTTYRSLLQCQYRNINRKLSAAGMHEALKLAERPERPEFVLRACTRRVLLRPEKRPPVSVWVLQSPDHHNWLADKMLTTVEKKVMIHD
T6 sequence (P41145 whole entry): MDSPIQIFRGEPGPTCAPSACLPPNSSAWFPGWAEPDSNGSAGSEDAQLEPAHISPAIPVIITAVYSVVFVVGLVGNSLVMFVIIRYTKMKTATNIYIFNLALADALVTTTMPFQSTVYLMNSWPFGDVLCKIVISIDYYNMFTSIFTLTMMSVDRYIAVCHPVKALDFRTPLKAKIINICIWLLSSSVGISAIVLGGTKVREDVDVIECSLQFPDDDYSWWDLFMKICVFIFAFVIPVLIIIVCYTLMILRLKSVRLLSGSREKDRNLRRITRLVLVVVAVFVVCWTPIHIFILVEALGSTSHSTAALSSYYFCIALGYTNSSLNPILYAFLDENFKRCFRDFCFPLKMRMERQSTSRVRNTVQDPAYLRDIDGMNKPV
T4 sequence (P28223 whole entry): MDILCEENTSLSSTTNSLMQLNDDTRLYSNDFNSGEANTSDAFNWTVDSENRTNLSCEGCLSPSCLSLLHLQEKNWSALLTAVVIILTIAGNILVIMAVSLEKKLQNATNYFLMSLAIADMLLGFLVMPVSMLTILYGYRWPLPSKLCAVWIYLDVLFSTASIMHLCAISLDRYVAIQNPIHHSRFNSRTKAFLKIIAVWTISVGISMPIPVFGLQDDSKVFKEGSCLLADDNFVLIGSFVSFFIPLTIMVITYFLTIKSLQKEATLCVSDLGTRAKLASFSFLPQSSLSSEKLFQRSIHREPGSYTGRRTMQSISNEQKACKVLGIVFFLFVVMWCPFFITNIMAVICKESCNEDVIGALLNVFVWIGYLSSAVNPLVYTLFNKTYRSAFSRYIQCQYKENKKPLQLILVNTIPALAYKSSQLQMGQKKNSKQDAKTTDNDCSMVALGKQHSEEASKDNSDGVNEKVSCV

CCCCNc1ncc2c(-c3ccc(CN4CCN(C)CC4)cc3)cn([C@H]3CC[C@H](O)CC3)c2n1 [UNC2025C, UNC2025]
Inhibition 1 ([1]; Receptor M1, 10 μM): 58.8% | Inhibition 2 ([1]; Receptor M1, 10 μM): 42.24% | Inhibition 3 ([1]; Receptor M1, 10 μM): 30.2% | Inhibition 4 ([1]; Receptor M1, 10 μM): 36.41% | Mean % ([1]; Receptor M1, 10 μM, mean of Inhibition 1-4): 41.91% | Inhibition 1 ([2]; Receptor D4, 10 μM): 1.91% | Inhibition 2 ([2]; Receptor D4, 10 μM): -16.35% | Inhibition 3 ([2]; Receptor D4, 10 μM): 0.67% | Inhibition 4 ([2]; Receptor D4, 10 μM): 12.24% | Mean % ([2]; Receptor D4, 10 μM, mean of Inhibition 1-4): -0.38% | Inhibition 1 ([3]; Receptor H2, 10 μM): 36.84% | Inhibition 2 ([3]; Receptor H2, 10 μM): 35.2% | Inhibition 3 ([3]; Receptor H2, 10 μM): 22.04% | Inhibition 4 ([3]; Receptor H2, 10 μM): 12.62% | Mean % ([3]; Receptor H2, 10 μM, mean of Inhibition 1-4): 26.68% | Inhibition 1 ([4]; Receptor 5-HT2A, 10 μM): 90.4% | Inhibition 2 ([4]; Receptor 5-HT2A, 10 μM): 85.14% | Inhibition 3 ([4]; Receptor 5-HT2A, 10 μM): 80.37% | Inhibition 4 ([4]; Receptor 5-HT2A, 10 μM): 89.25% | Mean % ([4]; Receptor 5-HT2A, 10 μM, mean of Inhibition 1-4): 86.29% | Inhibition 1 ([5]; Receptor 5-HT7A, 10 μM): 13.62% | Inhibition 2 ([5]; Receptor 5-HT7A, 10 μM): -19.4% | Inhibition 3 ([5]; Receptor 5-HT7A, 10 μM): -17.29% | Inhibition 4 ([5]; Receptor 5-HT7A, 10 μM): -17.42% | Mean % ([5]; Receptor 5-HT7A, 10 μM, mean of Inhibition 1-4): -10.12% | Inhibition 1 ([6]; Receptor KOR, 10 μM): -17.91% | Inhibition 2 ([6]; Receptor KOR, 10 μM): -11.2% | Inhibition 3 ([6]; Receptor KOR, 10 μM): -40.41% | Inhibition 4 ([6]; Receptor KOR, 10 μM): -19.03% | Mean % ([6]; Receptor KOR, 10 μM, mean of Inhibition 1-4): -22.14% | Inhibition 1 ([7]; Receptor 5-HT3, 10 μM): 11.35% | Inhibition 2 ([7]; Receptor 5-HT3, 10 μM): 35.98% | Inhibition 3 ([7]; Receptor 5-HT3, 10 μM): 21.68% | Inhibition 4 ([7]; Receptor 5-HT3, 10 μM): 26.58% | Mean % ([7]; Receptor 5-HT3, 10 μM, mean of Inhibition 1-4): 23.9% | Reported as cell active (<10 μM) [8]: Y (Published data supports that the compound is active in a cellular system when dosed at 10 μM (Y/N))

O=C(NC1CC1)C(=O)C(Cc1ccccc1)NC(=O)[C@H]1CCC(=O)N1Cc1ccccc1 (stereo partly drawn) [UNC10302676A, ABT-957 (Alicapistat)]
Mean % ([1]; M1, mean inhibition): -5.83% | Inhibition 1 ([1]; M1, replicate 1): 12.89% | Inhibition 2 ([1]; M1, replicate 2): -15.33% | Inhibition 3 ([1]; M1, replicate 3): -17.78% | Inhibition 4 ([1]; M1, replicate 4): -3.1% | Mean % ([2]; D4, mean inhibition): 0.58% | Inhibition 1 ([2]; D4, replicate 1): 5.07% | Inhibition 2 ([2]; D4, replicate 2): -11.66% | Inhibition 3 ([2]; D4, replicate 3): 8.7% | Inhibition 4 ([2]; D4, replicate 4): 0.19% | Mean % ([3]; H2, mean inhibition): 2.47% | Inhibition 1 ([3]; H2, replicate 1): -6.09% | Inhibition 2 ([3]; H2, replicate 2): 2.81% | Inhibition 3 ([3]; H2, replicate 3): -1.92% | Inhibition 4 ([3]; H2, replicate 4): 15.07% | Mean % ([4]; 5-HT2A, mean inhibition): 1.79% | Inhibition 1 ([4]; 5-HT2A, replicate 1): 6.22% | Inhibition 2 ([4]; 5-HT2A, replicate 2): 7.05% | Inhibition 3 ([4]; 5-HT2A, replicate 3): 5.57% | Inhibition 4 ([4]; 5-HT2A, replicate 4): -11.7% | Mean % ([5]; 5-HT7A, mean inhibition): 15.15% | Inhibition 1 ([5]; 5-HT7A, replicate 1): 8.6% | Inhibition 2 ([5]; 5-HT7A, replicate 2): 21.46% | Inhibition 3 ([5]; 5-HT7A, replicate 3): 9.06% | Inhibition 4 ([5]; 5-HT7A, replicate 4): 21.46% | Mean % ([6]; KOR, mean inhibition): -23.29% | Inhibition 1 ([6]; KOR, replicate 1): -17.69% | Inhibition 2 ([6]; KOR, replicate 2): -22.73% | Inhibition 3 ([6]; KOR, replicate 3): -22.5% | Inhibition 4 ([6]; KOR, replicate 4): -30.23% | Mean % ([7]; 5-HT3, mean inhibition): -3.28% | Inhibition 1 ([7]; 5-HT3, replicate 1): -2.95% | Inhibition 2 ([7]; 5-HT3, replicate 2): -3.65% | Inhibition 3 ([7]; 5-HT3, replicate 3): -8.86% | Inhibition 4 ([7]; 5-HT3, replicate 4): 2.33% | Reported as cell active (<10 μM) [8]: Y (Published data supports that the compound is active in a cellular system when dosed at 10 μM (Y/N))
